Consider eleven molecules from US7300930B2, “Therapeutic acridone and acridine compounds” (Cancer Research Technology Limited, priority 2000, dated 2007).

pIC50: −log10 of the molar value.

One series has as its target telomerase (Homo sapiens, UniProt O14746). Briefly: Modified telomeric repeat amplification protocol (TRAP) assay, cell-free. The class given is biochemical. Particulars: extracts from A2780 cells, tested as salts, read-out: telIC50 (Telomerase Inhibitory Activity).
Series [1] in a line: Growth inhibition, sulforhodamine B (SRB) assay, A2780. The class given is cell-based. Conditions: human, A2780 ovarian carcinoma cells, A2780, 96 hr incubation, tested as salts, read-out: Cytotoxicity - IC50 A2780.
A short description of series [2]: Growth inhibition, sulforhodamine B (SRB) assay, CH1. The class given is cell-based. Particulars: human, CH1 ovarian carcinoma cells, CH1, 96 hr incubation, tested as salts, read-out: Cytotoxicity - IC50 CH1.
Series [3] in a line: Growth inhibition, sulforhodamine B (SRB) assay, SKOV-3. Conditions: human, SKOV-3 ovarian carcinoma cells, SKOV-3, 96 hr incubation, tested as salts, read-out: Cytotoxicity - IC50 SKOV-3. The class given is cell-based. (In SRB staining, fixed cells bind dye roughly in proportion to their protein.)
The test system of the next series is human telomerase. Particulars: as described by Read et al., April 2001; cited from earlier work.
The nature of series [4]: Growth inhibition, sulforhodamine B (SRB) assay, A431. The class given is cell-based. Conditions: human, A431 cervix carcinoma cells, A431, 96 hr incubation, tested as salts, read-out: Cytotoxicity - IC50 A431. On the procedure:
Growth inhibition was measured in three human ovarian carcinoma cell lines (A2780, CH1, and SKOV-3) and one human cervix carcinoma cell line (A431) using the sulforhodamine B (SRB) assay. Briefly, between 3000 and 6000 cells were seeded into the wells of 96-well microtiter plates and allowed to attach overnight. Compounds (acid addition and quaternary dimethiodide salts) were dissolved at 500 μM in water and immediately added to wells in quadruplicate at final concentrations of 0.05, 0.25, 1, 5 and 25 μM. Following an incubation period of 96 hr, remaining cells were fixed with ice-cold 10% w/v trichloroacetic acid (30 min) and stained with 0.4% SRB in 1% v/v acetic acid (15 min). Mean absorbance at 540 nm for each drug concentration was expressed as a percentage of the control untreated well absorbance, and IC50 values (concentration required to inhibit cell growth by 50%) were determined for each agent.

Chain of telomerase (O14746 whole entry): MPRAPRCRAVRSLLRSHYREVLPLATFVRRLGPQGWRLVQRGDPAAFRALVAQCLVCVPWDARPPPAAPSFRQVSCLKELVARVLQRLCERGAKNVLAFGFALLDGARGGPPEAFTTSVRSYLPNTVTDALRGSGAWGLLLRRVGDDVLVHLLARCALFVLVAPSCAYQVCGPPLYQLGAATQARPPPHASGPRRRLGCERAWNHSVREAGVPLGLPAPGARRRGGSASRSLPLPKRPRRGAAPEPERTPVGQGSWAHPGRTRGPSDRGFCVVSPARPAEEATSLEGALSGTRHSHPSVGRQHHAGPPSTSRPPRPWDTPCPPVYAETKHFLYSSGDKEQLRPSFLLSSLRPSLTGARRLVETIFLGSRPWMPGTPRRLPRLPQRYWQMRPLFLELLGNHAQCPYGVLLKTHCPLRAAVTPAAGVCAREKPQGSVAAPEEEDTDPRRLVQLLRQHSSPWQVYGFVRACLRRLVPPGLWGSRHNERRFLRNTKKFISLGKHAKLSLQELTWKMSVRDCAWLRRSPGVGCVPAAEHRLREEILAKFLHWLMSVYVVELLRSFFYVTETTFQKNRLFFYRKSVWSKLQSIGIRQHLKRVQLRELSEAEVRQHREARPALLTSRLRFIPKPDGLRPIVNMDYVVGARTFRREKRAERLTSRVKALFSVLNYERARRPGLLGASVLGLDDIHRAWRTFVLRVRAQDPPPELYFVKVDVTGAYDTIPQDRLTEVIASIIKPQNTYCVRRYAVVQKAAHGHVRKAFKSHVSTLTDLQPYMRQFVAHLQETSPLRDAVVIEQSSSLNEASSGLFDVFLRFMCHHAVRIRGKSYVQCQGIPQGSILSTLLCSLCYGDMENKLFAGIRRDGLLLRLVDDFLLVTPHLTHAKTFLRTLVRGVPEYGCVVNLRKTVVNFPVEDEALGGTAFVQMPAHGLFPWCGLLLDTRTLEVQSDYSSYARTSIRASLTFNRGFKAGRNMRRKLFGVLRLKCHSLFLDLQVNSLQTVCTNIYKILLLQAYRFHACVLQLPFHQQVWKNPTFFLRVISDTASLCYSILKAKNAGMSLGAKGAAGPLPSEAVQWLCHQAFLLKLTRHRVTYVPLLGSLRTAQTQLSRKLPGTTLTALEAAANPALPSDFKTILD

For orientation: IC50 means the point on the concentration scale where inhibition reaches its midpoint. `Nc1ccc(Nc2c3ccc(NC(=O)CCN4CCCC4)cc3nc3cc(NC(=O)CCN4CCCC4)ccc23)cc1` [BR-ACO-20, N-[9-(4′-Aminophenylamino)]-3,6-bis(3-pyrrolidinopropionamido)acridine]: the pIC50 at telomerase was 7.22. In addition, the IC50 at 96 h in series [1], in series [2] and in series [3] was over 25 µM throughout. In addition, the “in vitro inhibitory activity against human telomerase” value with human telomerase was “potent in vitro inhibitory activity”.
`CN1CCCC1CCNc1c2ccc(NC(=O)CCN3CCCC3)cc2nc2cc(NC(=O)CCN3CCCC3)ccc12` (centres unmarked) [SB-ACI-12, N-{9-[2-(2′-Aminoethyl)-1-methylpyrrolidino]}-3,6-bis(3-pyrrolidinopropionamido)acridine]: the pIC50 on telomerase was 7.74. Further, the IC50 at 96 h in series [1] was over 25 µM; in series [2], over 25 µM; in series [3] it was over 25 µM; in series [4], at least 25 µM.
Turning to `Nc1cccc(Nc2c3ccc(NC(=O)CCN4CCCC4)cc3nc3cc(NC(=O)CCN4CCCC4)ccc23)c1` [JH-ACI-74, N-{9-[3′-(Amino)phenylamino]}-3,6-bis(3-pyrrolidinopropionamido)acridine], the pIC50 at telomerase was 7.22. The IC50 at 96 h in series [1] is 12.6 µM; in series [2], 15.8 µM; in series [3] it was over 25 µM; in series [4], 12.6 µM.
In the case of `O=C(CCN1CCC(O)CC1)Nc1ccc2nc3ccc(NC(=O)CCN4CCC(O)CC4)cc3c(O)c2c1` [JM-ACO-09, 2,7-Bis[3-(4-hydroxypiperidino)propionamido]-9(10H)-acridone], the pIC50 on telomerase was 5.80. The IC50 at 96 h in series [1], in series [2], in series [3] and in series [4] was over 25 µM each time.
For the molecule `CN(C)c1ccc(Nc2c3ccc(NC(=O)CCN4CCCC4)cc3nc3cc(NC(=O)CCN4CCCC4)ccc23)cc1` [BR-ACO-19, N-{9-[4′-(N,N-Dimethylamino)phenylamino]}-3,6-bis(3-pyrrolidinopropionamido)acridine], the pIC50 at telomerase is 7.02. For the same molecule, the IC50 at 96 h in series [1] came out at 10 µM; in series [2] it was 10.1 µM; in series [3] it was 13 µM; in series [4], 15.8 µM. Further, the “in vitro inhibitory activity against human telomerase” value with human telomerase is listed as “potent in vitro inhibitory activity”.
For the molecule `CN(C)c1cccc(Nc2c3ccc(NC(=O)CCN4CCCC4)cc3nc3cc(NC(=O)CCN4CCCC4)ccc23)c1` [JH-ACI-78, N-{9-[3′-(N,N-Dimethylamino)phenylamino]}-3,6-bis(3-pyrrolidinopropionamido)acridine], the pIC50 at telomerase was 7.00. The IC50 at 96 h stood at 7.9 µM in series [1], 2 µM in series [2], 4 µM in series [3] and 2 µM in series [4].
For `CN(C)c1ccc(Nc2c3ccc(NC(=O)CCN4CC5(C)CC4CC(C)(C)C5)cc3nc3cc(NC(=O)CCN4CC5(C)CC4CC(C)(C)C5)ccc23)cc1` [JH-ACI-103, N-{9-[4′-(N,N-Dimethylamino)phenylamino]}-3,6-bis[(1,3,3-trimethyl-6-azabicyclo[3.2.1]-octanamino)propionamido]-acridine], on telomerase, the pIC50 was 6.85. In addition, the IC50 at 96 h in series [1] was 1 µM; in series [2], 3.2 µM; in series [3] it was 2 µM; in series [4] it was 2.5 µM.
For `CC1(C)CC2CC(C)(CN2CCC(=O)Nc2ccc3c(Nc4ccc(N)cc4)c4ccc(NC(=O)CCN5CC6(C)CC5CC(C)(C)C6)cc4nc3c2)C1` [JH-ACI-101, N-{9-[4′-(Amino)phenylamino]}-3,6-bis[(1,3,3-trimethyl-6-azabicyclo[3.2.1]-octanamino)propionamido]-acridine] the same measures were 6.80, 1.6 µM, 2.3 µM, 1.2 µM and 2.5 µM.
The corresponding values for `O=C(CCN1CCCC1)Nc1ccc2c(NCCN3CCCCC3)c3ccc(NC(=O)CCN4CCCC4)cc3nc2c1` [JH-ACI-69, N-[9-(2-Piperidin-1-yl-ethylamino)]-3,6-bis(3-pyrrolidinopropionamido)acridine] are 7.30, 12.6 µM, over 25 µM, over 25 µM and 11.2 µM.
Regarding `CN(C)CCC(=O)Nc1ccc2nc3ccc(NC(=O)CCN(C)C)cc3c(O)c2c1` [JH-ACO-22, 2,7-Bis(3-dimethylaminopropionamido)-9(10H)-acridone], the pIC50 on telomerase was 5.72. Further, the IC50 at 96 h in series [1], in series [2], in series [3] and in series [4] was over 25 µM each time.
As for `Nc1ccccc1Nc1c2ccc(NC(=O)CCN3CCCC3)cc2nc2cc(NC(=O)CCN3CCCC3)ccc12` [JH-ACI-76, N-[9-(2′-(Amino)phenylamino)]-3,6-bis(3-pyrrolidinopropionamido)acridine], the pIC50 on telomerase was 7.70. Moreover, the IC50 at 96 h in series [1] is 11 µM; in series [2], 10 µM; in series [3], 15.8 µM; in series [4], 7.1 µM.
